For orientation: Ki means a dissociation constant, usually derived from enzyme kinetics or from competition with a known ligand. A lower Ki goes with a stronger hold on the target.

The target of this assay is T1, cynomolgus BK1-receptor (Macaca fascicularis, UniProt Q3BCU0).
T1 construct: expressed in transfected cells; host or cells: CHO cells (homogenate)
T1 sequence (Q3BCU0 1-352): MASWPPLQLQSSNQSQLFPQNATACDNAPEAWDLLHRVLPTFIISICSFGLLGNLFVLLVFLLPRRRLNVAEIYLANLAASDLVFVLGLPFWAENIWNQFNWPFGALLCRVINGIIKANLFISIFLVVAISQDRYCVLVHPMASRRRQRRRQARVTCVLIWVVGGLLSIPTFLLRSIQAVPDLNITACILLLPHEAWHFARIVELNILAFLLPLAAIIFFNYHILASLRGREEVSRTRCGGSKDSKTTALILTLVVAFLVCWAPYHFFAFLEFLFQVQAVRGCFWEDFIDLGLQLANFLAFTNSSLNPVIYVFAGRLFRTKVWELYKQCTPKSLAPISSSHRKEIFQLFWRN
Briefly: cynoBK1-receptor binding assay. To be noted: CHO cells expressing cynomolgus BK1-receptor, radioligand kallidine (DesArg10,Leu9). The gist of the method: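 Ki derived by non-linear fitting of concentration-binding curves. Test compound competed against 0.5 to 5.0 nM tritiated kallidine (DesArg10,Leu9) on cynomolgus BK1-CHO cell homogenate (50 to 250 μg protein/assay) for 60-180 minutes at ambient temperature, then filtered. 1.0 μM kallidine (DesArg10) set non-specific binding.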

In turn, `Nc1ccc(C(=O)N[C@@]2(C(=O)NCc3ccc(Nc4ccc(F)cc4C(F)(F)F)cn3)CCOC2)cn1` [(349)] came in with a Ki of 648 nM.

`O=C(NC1(C(=O)NCc2ccc(Nc3ccc(Cl)cc3C(F)(F)F)cn2)CC1)c1cnc(O)nc1` [(350)] displayed a Ki of 43 nM.

The compound `O=C(NC1(C(=O)NCc2ccc(Nc3ccc(Cl)cc3C(F)(F)F)cn2)CC1)c1cncc(F)c1` [(351)] yielded an inhibition constant Ki of 24 nM.

Consider `O=C(NC1(C(=O)NCc2ccc(Nc3ccc(Cl)cc3C(F)(F)F)cn2)CC1)c1cncc(Cl)c1` [(352)], for which affinity was put at a Ki of 59 nM.

For the compound `Cc1cncc(C(=O)NC2(C(=O)NCc3ccc(Nc4ccc(Cl)cc4C(F)(F)F)cn3)CC2)c1` [(353)], the affinity corresponds to a Ki of 52 nM.

`O=C(NC1(C(=O)NCc2ccc(Nc3ccc(Cl)cc3C(F)(F)F)cn2)CC1)c1cncc(C(F)(F)F)c1` [(354)] had a Ki of 27 nM.

In turn, `O=C(NC1(C(=O)NCc2ccc(Nc3ccc(Cl)cc3C(F)(F)F)cn2)CC1)c1ccnc(F)c1` [(355)] registered a Ki of 433 nM.

For the compound `COc1cc(C(=O)NC2(C(=O)NCc3ccc(Nc4ccc(Cl)cc4C(F)(F)F)cn3)CC2)on1` [(356)], the Ki was 22 nM.

Regarding `O=C(NC1(C(=O)NCc2ccc(Nc3ccc(Cl)cc3C(F)(F)F)cn2)CC1)c1ccns1` [(357)], the Ki came out at 44 nM.

Regarding `O=C(NC1(C(=O)NCc2ccc(Nc3ccc(Cl)cc3C(F)(F)F)cn2)CC1)c1cnsc1` [(358)], the affinity corresponds to a Ki of 37 nM.

In the case of `Cc1cc(Nc2ccccc2C(F)(F)F)cnc1CNC(=O)[C@]1(NC(=O)c2cncc(N)c2)CCOC1` [(359)], the affinity, expressed as Ki, was 125 nM.

Compound `Cc1ncc(C(=O)NC2(C(=O)NCc3ncc(Nc4ccc(Cl)cc4C(F)(F)F)cc3C)CC2)cn1` [(360)] displayed a Ki of 2.5 nM.

Regarding `Cc1cc(Nc2ccc(Cl)cc2C(F)(F)F)cnc1CNC(=O)C1(NC(=O)c2cncc(N)c2)CC1` [(361)], the inhibitory constant (Ki) was 10 nM.

The compound `O=C(NC1(C(=O)NCc2ccc(Nc3ccc(Cl)cc3C(F)(F)F)cn2)CC1)C(F)(F)F` [(362)] gave a Ki of 101 nM.

Take `O=C(CC(F)(F)F)NC1(C(=O)NCc2ccc(Nc3ccc(Cl)cc3C(F)(F)F)cn2)CC1` [(363)]: the Ki was 45 nM.

In turn, `N#CCC(=O)NC1(C(=O)NCc2ccc(Nc3ccc(Cl)cc3C(F)(F)F)cn2)CC1` [(364)] yielded a Ki of 77 nM.

In turn, `O=C(N[C@@]1(C(=O)NCc2ccc(Nc3ccc(F)cc3C(F)(F)F)cc2)CCOC1)c1cnc2cc[nH]c2c1` [(365)] returned a Ki of 376 nM.

In turn, `Cc1ncc(C(=O)N[C@@]2(C(=O)NCc3ncc(Nc4ccccc4C(F)(F)F)cc3C)CCOC2)cn1` [(366)] gave a Ki of 33 nM.

Take `N#CC1(C(=O)NC2(C(=O)NCc3ccc(Nc4ccc(Cl)cc4C(F)(F)F)cn3)CC2)CC1` [(367)]: the Ki came out at 508 nM.

Compound `CC(C#N)C(=O)NC1(C(=O)NCc2ccc(Nc3ccc(Cl)cc3C(F)(F)F)cn2)CC1` (stereo not shown) [(368)] came in with an inhibition constant Ki of 42 nM.

On to `O=C(NC1(C(=O)NCc2ccc(Nc3ccc(Cl)cc3C(F)(F)F)cn2)CC1)c1ccno1` [(369)], for which the affinity, expressed as Ki, was 37 nM.

With `Nc1ncc(C(=O)NC2(C(=O)NCc3ccc(Nc4ccc(Cl)cc4C(F)(F)F)cn3)CC2)cn1` [(370)], the Ki worked out at 1.4 nM.

`CCc1ncc(C(=O)NC2(C(=O)NCc3ccc(Nc4ccc(Cl)cc4C(F)(F)F)cn3)CC2)cn1` [(371)] displayed a Ki of 6.1 nM.

In turn, `O=C(NC1(C(=O)NCc2ccc(Nc3ccc(Cl)cc3C(F)(F)F)cn2)CC1)c1cn[nH]c1` [(372)] came in with a Ki of 24 nM.

As for `Cn1cc(C(=O)NC2(C(=O)NCc3ccc(Nc4ccc(Cl)cc4C(F)(F)F)cn3)CC2)cn1` [(373)], affinity was put at a Ki of 95 nM.

Compound `Cc1ncc(C(=O)NC2(C(=O)NCc3ncc(Nc4ccccc4C(F)(F)F)cc3C)CC2)cn1` [(374)] showed a Ki of 5.5 nM.

Compound `Cc1cc(Nc2ccccc2C(F)(F)F)cnc1CNC(=O)C1(NC(=O)c2cncc(N)c2)CC1` [(375)] came in with an inhibition constant (Ki) of 48 nM.

In turn, `COc1cncc(C(=O)NC2(C(=O)NCc3ccc(Nc4ccc(F)cc4C(F)(F)F)cn3)CC2)c1` [(376)] gave a Ki of 61 nM.

On to `CNc1ccc(C(=O)NC2(C(=O)NCc3ccc(Nc4ccc(F)cc4C(F)(F)F)cn3)CC2)cn1` [(377)], for which the affinity, expressed as Ki, was 45 nM.

Regarding `Nc1ncc(C(=O)NC2(C(=O)NCc3ccc(Nc4ccc(Cl)cc4C(F)(F)F)cn3)CC2)cc1Br` [(378)], the affinity corresponds to a Ki of 4.6 nM.

The compound `O=C(NC1(C(=O)NCc2ccc(Nc3ccc(Cl)cc3C(F)(F)F)cn2)CC1)c1cnc(NC2CC2)nc1` [(379)] displayed a Ki of 5.5 nM.

Compound `CCCNc1ncc(C(=O)NC2(C(=O)NCc3ccc(Nc4ccc(Cl)cc4C(F)(F)F)cn3)CC2)cn1` [(380)] returned a Ki of 6.5 nM.

Consider `COc1cncc(C(=O)N[C@@]2(C(=O)NCc3ccc(Nc4ccc(F)cc4C(F)(F)F)cc3)CCOC2)c1` [(381)], for which the Ki was 93 nM.

Regarding `CC(C)Nc1ncc(C(=O)NC2(C(=O)NCc3ccc(Nc4ccc(Cl)cc4C(F)(F)F)cn3)CC2)cn1` [(382)], the Ki worked out at 6.8 nM.

Take `O=C(N[C@@]1(C(=O)NCc2ccc(Nc3ccc(F)cc3C(F)(F)F)cc2)CCOC1)c1cnc2[nH]ccc2c1` [(383)]: the affinity, expressed as Ki, was 225 nM.

`O=C(NC1(C(=O)NCc2ccc(Nc3ccc(F)cc3C(F)(F)F)cn2)CC1)c1cnc2[nH]ccc2c1` [(384)] returned a Ki of 21 nM.

With `N#Cc1ncc(C(=O)NC2(C(=O)NCc3ccc(Nc4ccc(Cl)cc4C(F)(F)F)cn3)CC2)cn1` [(385)], the Ki is 9.4 nM.

On to `Cc1ncc(C(=O)NC2(C(=O)NCc3ccc(Nc4ccc(Cl)cc4C(F)F)cn3)CC2)cn1` [(386)], for which the Ki turned out to be 15 nM.

Compound `Cc1ncc(C(=O)N[C@@]2(C(=O)NCc3ncc(Nc4ccc(F)cc4C(F)(F)F)cc3C)CCOC2)cn1` [(387)] had a Ki of 10 nM.

Consider `O=C(N[C@@]1(C(=O)NCc2ccc(Nc3ccc(Cl)cc3C(F)(F)F)cc2)CCOC1)c1cnc2[nH]ccc2c1` [(388)], for which affinity was put at a Ki of 386 nM.

The compound `O=C(NC1(C(=O)NCc2ccc(Nc3ccc(Cl)cc3C(F)(F)F)cn2)CC1)c1ccc(NC2CC2)nc1` [(389)] gave a Ki of 15 nM.

Compound `CCOc1ncc(C(=O)NC2(C(=O)NCc3ccc(Nc4ccc(Cl)cc4C(F)(F)F)cn3)CC2)cn1` [(390)] displayed a Ki of 7.3 nM.

`Cc1cc(C(=O)NC2(C(=O)NCc3ccc(Nc4ccc(F)cc4C(F)(F)F)cn3)CC2)cnc1N` [(391)]: the Ki stood at 9.3 nM.
